This passage reports EC50 results from patent publication US20090023704A1, “Novel Compounds 737” (ASTRAZENECA AB, priority 2007, published 2009).

This test deals with T1, GABAB receptor (GABABR1a/GABABR2 heterodimer) (Homo sapiens, UniProt O75899+Q9UBS5).
T1 construct: expressed in transfected cells
Nature of the test: [35S]-GTPγS binding assay, potency of PAM (GABA dose-response curves with and without test compound). The settings on record: potency of the positive allosteric modulator; GABA dose-response in presence of test compound. The test is classed as biochemical. The text has this:
GABABR1a and GABABR2 were cloned from human brain cDNA and subcloned into pCI-Neo (Promega) and pALTER-1 (Promega), respectively. A GABABR1a-Gαqi5 fusion protein expression vector was constructed using the pCI-Neo-GABABR1a cDNA plasmid and pLEC1-Gαqi5 (Molecular Devices, CA). In order to make the Gαqi5 pertussis toxin insensitive, Cys356 was mutated to Gly using standard PCR methodology with the primers 5′-[…]-3′ (forward) and 5′-GCGGCCG […]-3′ (reverse). The Gαqi5mut cDNA was ligated into the BamHI and NotI sites of pcDNA3.0 (Invitrogen). The GABAB R1a coding sequence was amplified by PCR from pCI-Neo-GABABR1a using the primers, 5′-[…]-3′ (forward) and 5′-[…]-3′ (reverse) and subcloned into the BamHI site of pcDNA3.0-Gαqi5mut.
For generation of a cell line expressing the GABABR1a/GABABR2 heterodimer, GABABR1a plasmid DNA (4 μg) GABABR2 plasmid DNA (4 μg) and lipofectamine (24 μl) were mixed in 5 ml OptiMEM and incubated for 45 minutes at room temperature. The cells were exposed to the transfection medium for 5 hours, which then was replaced with culture medium. The cells were cultured for an additional 10 days before selection agents (300 μg/ml hygromycin and 400 μg/ml geneticin) were added. Twenty-four days after transfection, single cell sorting into 96-well plates by flow cytometry was performed using a FACS Vantage SE (Becton Dickinson, Palo Alto, Calif.). After expansion, the GABAB receptor functional response was tested using the FLIPR assay described below. The clone with the highest functional response was collected, expanded and then subcloned by single cell sorting. The clonal cell line with the highest peak response in the FLIPR was used in the present study.
For generation of a stable cell line expressing GABABR1a-Gαqi5 fusion protein and GABABR2, GABABR1a-Gαqi5mut plasmid DNA (8 μg) GABABR2 plasmid DNA (8 μg) and lipofectamine (24 μl) were mixed in 5 ml OptiMEM and incubated for 45 minutes at room temperature. The cells were exposed to the transfection medium for 5 hours, which then was replaced with culture medium. After forty-eight hours, the cells were detached and seeded in 6 well plates (2000 cells/well) and grown in culture medium supplemented with geneticin (400 μg/ml) and zeocin (250 μg/ml). After 4 days, cells from single colonies were collected and transferred to a 24-well plate. After 10 days, the cell clones were seeded in T-25 flasks and grown for another 16 days before they were tested for GABAB receptor mediated functional response. […] The clonal cell line that gave the highest peak response in the FLIPR was used in the present study.
[^35S]-GTPγS binding assays were performed at 30° C. for 45 min in membrane buffer (100 mM NaCl, 5 mM MgCl2, 1 mM EDTA, 50 mM HEPES, pH 7.4) containing 0.025 μg/μl of membrane protein (prepared from the cell lines described above) with 0.01% bovine serum albumin (fatty acid free), 10 μM GDP, 10 μM DTT and 0.53 nM [^35S]-GTPγS (Amersham-Pharmacia Biotech) in a final volume of 200 μl. Non-specific binding was determined in the presence of 20 μM GTPγS. The reaction was started by the addition of GABA at concentration between 1 mM and 0.1 nM in the presence or absence of the required concentration of PAM. The reaction was terminated by addition of ice-cold wash buffer (50 mM Tris-HCl, 5 mM MgCl2, 50 mM NaCl, pH 7.4) followed by rapid filtration under vacuum through Printed Filtermat A glass fiber filters (Wallac) (0.05% PEI treated) using a Micro 96 Harvester (Skatron Instruments). The filters were dried for 30 min at 50° C., then a paraffin scintillant pad was melted onto the filters and the bound radioactivity was determined using a 1450 Microbeta Trilux (Wallac) scintillation counter.
GABA dose-response curves in the presence and absence of test compounds were constructed using the 4-parameter logistic equation, y=ymax+((ymin−ymax)/1+(x/C)^D), where C=EC50 and D=slope factor.
(GTPγS resists hydrolysis and so accumulates on activated G proteins.)

T1 sequence (Q9UBS5 15-961 limits assumed): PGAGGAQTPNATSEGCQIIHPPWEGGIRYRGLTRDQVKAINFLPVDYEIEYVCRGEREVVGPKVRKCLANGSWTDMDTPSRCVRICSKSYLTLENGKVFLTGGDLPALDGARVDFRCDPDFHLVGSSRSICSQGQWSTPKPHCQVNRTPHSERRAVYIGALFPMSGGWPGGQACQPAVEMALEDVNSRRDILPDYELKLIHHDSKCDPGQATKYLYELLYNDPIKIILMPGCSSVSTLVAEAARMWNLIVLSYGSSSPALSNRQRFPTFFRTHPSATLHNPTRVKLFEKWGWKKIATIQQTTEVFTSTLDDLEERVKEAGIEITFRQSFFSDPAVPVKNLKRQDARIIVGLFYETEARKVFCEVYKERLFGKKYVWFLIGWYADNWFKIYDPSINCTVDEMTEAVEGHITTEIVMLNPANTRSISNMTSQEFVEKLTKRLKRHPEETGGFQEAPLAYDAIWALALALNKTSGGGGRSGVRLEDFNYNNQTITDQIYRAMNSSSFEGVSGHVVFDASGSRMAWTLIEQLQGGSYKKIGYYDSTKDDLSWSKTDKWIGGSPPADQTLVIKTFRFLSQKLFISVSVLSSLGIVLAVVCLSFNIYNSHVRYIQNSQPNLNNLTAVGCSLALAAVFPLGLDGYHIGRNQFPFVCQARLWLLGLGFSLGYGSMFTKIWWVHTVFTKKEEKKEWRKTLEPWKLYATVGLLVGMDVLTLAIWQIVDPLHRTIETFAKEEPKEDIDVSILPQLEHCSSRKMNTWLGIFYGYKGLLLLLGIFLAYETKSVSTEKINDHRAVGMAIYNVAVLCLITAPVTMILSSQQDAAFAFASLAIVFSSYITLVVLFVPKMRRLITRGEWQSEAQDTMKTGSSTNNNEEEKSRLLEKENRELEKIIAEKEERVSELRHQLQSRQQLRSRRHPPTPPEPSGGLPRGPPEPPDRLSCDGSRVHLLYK
T1 sequence (O75899 42-941): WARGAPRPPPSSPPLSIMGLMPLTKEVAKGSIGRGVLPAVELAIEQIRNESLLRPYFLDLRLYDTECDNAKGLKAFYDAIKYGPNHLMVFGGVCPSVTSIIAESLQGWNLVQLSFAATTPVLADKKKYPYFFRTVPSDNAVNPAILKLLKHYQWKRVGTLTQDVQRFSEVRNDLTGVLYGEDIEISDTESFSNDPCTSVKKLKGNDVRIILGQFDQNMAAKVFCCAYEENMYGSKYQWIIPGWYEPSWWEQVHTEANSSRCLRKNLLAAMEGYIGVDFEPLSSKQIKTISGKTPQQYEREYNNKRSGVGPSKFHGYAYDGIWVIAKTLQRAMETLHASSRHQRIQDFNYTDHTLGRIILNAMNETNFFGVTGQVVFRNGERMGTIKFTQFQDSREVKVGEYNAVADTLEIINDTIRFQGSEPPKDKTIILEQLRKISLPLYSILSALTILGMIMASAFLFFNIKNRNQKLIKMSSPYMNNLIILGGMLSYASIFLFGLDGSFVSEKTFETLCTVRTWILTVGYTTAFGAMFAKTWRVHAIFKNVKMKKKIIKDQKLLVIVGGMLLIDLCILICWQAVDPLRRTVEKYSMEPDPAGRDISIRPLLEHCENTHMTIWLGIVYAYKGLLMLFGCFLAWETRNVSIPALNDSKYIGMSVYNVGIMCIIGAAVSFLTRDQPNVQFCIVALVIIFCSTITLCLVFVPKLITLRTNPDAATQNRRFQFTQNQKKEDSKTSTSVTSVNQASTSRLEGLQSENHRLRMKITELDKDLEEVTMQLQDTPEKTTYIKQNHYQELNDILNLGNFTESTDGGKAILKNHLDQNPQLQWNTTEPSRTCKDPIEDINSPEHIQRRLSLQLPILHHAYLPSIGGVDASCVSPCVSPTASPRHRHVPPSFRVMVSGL

Turning to `CCc1nc2c(c(=O)n(Cc3ccc(Cl)cc3)c(=O)n2Cc2c(-c3ccccc3)noc2C)n1C` [Example 30, 1-(4-chlorobenzyl)-8-ethyl-7-methyl-3-[(5-methyl-3-phenylisoxazol-4-yl)methyl]-3,7-dihydro-1H-purine-2,6-dione], the EC50 amounted to 4.6 µM.

On to `CCc1nc2c(c(=O)n(Cc3ccc(Cl)cc3)c(=O)n2Cc2ccc(C(F)(F)F)cc2)n1C` [Example 31, 1-(4-chlorobenzyl)-8-ethyl-7-methyl-3-[4-(trifluoromethyl)benzyl]-3,7-dihydro-1H-purine-2,6-dione], for which the EC50 came out at 5.5 µM.

As to `CCc1nc2c(c(=O)n(Cc3ccc(Cl)cc3)c(=O)n2CCOC)n1C` [Example 32, 1-(4-chlorobenzyl)-8-ethyl-3-(2-methoxyethyl)-7-methyl-3,7-dihydro-1H-purine-2,6-dione], the EC50 was 7.9 µM.

`CCC(=O)Cn1c(=O)n(Cc2ccc(Cl)cc2)c(=O)c2c1nc(CC)n2C` [Example 33, 1-(4-chlorobenzyl)-8-ethyl-7-methyl-3-(2-oxobutyl)-3,7-dihydro-1H-purine-2,6-dione]: the EC50 worked out at 3.7 µM.

Take `CCc1nc2c(c(=O)n(Cc3ccc(Cl)cc3)c(=O)n2CCCS(=O)(=O)C(C)(C)C)n1C` [Example 34, 3-[3-(tert-butylsulfonyl)propyl]-1-(4-chlorobenzyl)-8-ethyl-7-methyl-3,7-dihydro-1H-purine-2,6-dione]: the EC50 was determined as 11.3 µM.

In the case of `CCc1nc2c(c(=O)n(Cc3ccc(Cl)cc3)c(=O)n2CC(=O)OC(C)(C)C)n1C` [Example 35, tert-butyl [1-(4-chlorobenzyl)-8-ethyl-7-methyl-2,6-dioxo-1,2,6,7-tetrahydro-3H-purin-3-yl]acetate], the EC50 is 5.6 µM.

`CCc1nc2c(c(=O)n(Cc3ccc(Cl)cc3)c(=O)n2CCCOc2ccc(C(F)(F)F)cc2)n1C` [Example 36, 1-(4-chlorobenzyl)-8-ethyl-7-methyl-3-{3-[4-(trifluoromethyl)phenoxy]propyl}-3,7-dihydro-1H-purine-2,6-dione]: the EC50 was 6.6 µM.

For `CCc1nc2c(c(=O)n(Cc3ccc(Cl)cc3)c(=O)n2CCn2cccc2)n1C` [Example 37, 1-(4-chlorobenzyl)-8-ethyl-7-methyl-3-[2-(1H-pyrrol-1-yl)ethyl]-3,7-dihydro-1H-purine-2,6-dione], the EC50 turned out to be 1.7 µM.

For the compound `CCc1nc2c(c(=O)n(Cc3ccc(Cl)cc3)c(=O)n2CCCO)n1C` [Example 38, 1-(4-chlorobenzyl)-8-ethyl-3-(3-hydroxypropyl)-7-methyl-3,7-dihydro-1H-purine-2,6-dione], the EC50 came out at 6.8 µM.

Take `CCc1nc2c(c(=O)n(Cc3ccc(Cl)cc3)c(=O)n2Cc2scc(S(=O)(=O)C(C)C)c2Cl)n1C` [Example 39, 1-(4-chlorobenzyl)-3-{[3-chloro-4-(isopropylsulfonyl)-2-thienyl]methyl}-8-ethyl-7-methyl-3,7-dihydro-1H-purine-2,6-dione]: the EC50 came out at 1.8 µM.

As to `CCc1nc2c(c(=O)n(Cc3ccc(Cl)c(Cl)c3)c(=O)n2CC(=O)C(C)(C)C)n1C` [Example 40, 1-(3,4-Dichlorobenzyl)-3-(3,3-dimethyl-2-oxobutyl)-8-ethyl-7-methyl-3,7-dihydro-1H-purine-2,6-dione], the EC50 turned out to be 0.6 µM.

Regarding `CCc1nc2c(c(=O)n(Cc3ccc(Cl)c(Cl)c3)c(=O)n2CCC(C)(C)C)n1C` [Example 41, 1-(3,4-Dichlorobenzyl)-3-(3,3-dimethylbutyl)-8-ethyl-7-methyl-3,7-dihydro-1H-purine-2,6-dione], the EC50 worked out at 2 µM.

With `CCc1nc2c(c(=O)n(Cc3ccc(Cl)c(Cl)c3)c(=O)n2CC(=O)[C@]23C[C@@H]4C[C@H](C[C@@H](C4)C2)C3)n1C` [Example 42, 3-{2-[(3S,5S,7S)-Adamantan-1-yl]-2-oxoethyl}-1-(3,4-dichlorobenzyl)-8-ethyl-7-methyl-3,7-dihydro-1H-purine-2,6-dione], the EC50 was 11.3 µM.

For the compound `CCc1nc2c(c(=O)n(Cc3ccc(Cl)c(Cl)c3)c(=O)n2CC[Si](C)(C)C)n1C` [Example 43, 1-(3,4-Dichlorobenzyl)-8-ethyl-7-methyl-3-[2-(trimethylsilyl)ethyl]-3,7-dihydro-1H-purine-2,6-dione], the EC50 worked out at 2.7 µM.

Consider `CCc1nc2c(c(=O)n(Cc3ccc(Cl)c(Cl)c3)c(=O)n2CCCCC2CCCCC2)n1C` [Example 44, 3-(4-Cyclohexylbutyl)-1-(3,4-dichlorobenzyl)-8-ethyl-7-methyl-3,7-dihydro-1H-purine-2,6-dione], for which the EC50 worked out at 12.5 µM.

As for `CCc1nc2c(c(=O)n(Cc3ccc(Cl)cc3)c(=O)n2CCCN2CCCC2)n1C` [Example 46, 1-(4-chlorobenzyl)-8-ethyl-7-methyl-3-(3-pyrrolidin-1-ylpropyl)-3,7-dihydro-1H-purine-2,6-dione], the EC50 worked out at 16.9 µM.

Consider `CCc1nc2c(c(=O)n(Cc3ccc(Cl)cc3)c(=O)n2CCCN2CCN(c3ccccc3)CC2)n1C` [Example 47, 1-(4-Chlorobenzyl)-8-ethyl-7-methyl-3-[3-(4-phenylpiperazin-1-yl)propyl]-3,7-dihydro-1H-purine-2,6-dione], for which the 50% effective concentration (EC50) turned out to be 8.7 µM.

Consider `CCc1nc2c(c(=O)n(Cc3ccc(Cl)cc3)c(=O)n2CCCN2CCC3(CC2)OCCO3)n1C` [Example 48, 1-(4-Chlorobenzyl)-3-[3-(1,4-dioxa-8-azaspiro[4.5]dec-8-yl)propyl]-8-ethyl-7-methyl-3,7-dihydro-1H-purine-2,6-dione], for which the EC50 was 12.1 µM.

For the compound `CCc1nc2c(c(=O)n(Cc3ccc(Cl)cc3)c(=O)n2CCCn2ccnc2)n1C` [Example 49, 1-(4-Chlorobenzyl)-8-ethyl-3-[3-(1H-imidazol-1-yl)propyl]-7-methyl-3,7-dihydro-1H-purine-2,6-dione], the EC50 came to 13.4 µM.

Take `CCc1nc2c(c(=O)n(Cc3ccc(Cl)cc3)c(=O)n2CC(=O)N2CCC(F)(F)C2)n1C` [Example 50, 1-(4-Chlorobenzyl)-3-[2-(3,3-difluoropyrrolidin-1-yl)-2-oxoethyl]-8-ethyl-7-methyl-3,7-dihydro-1H-purine-2,6-dione]: the EC50 was found to be 10 µM.

In the case of `CCc1nc2c(c(=O)n(Cc3ccc(Cl)cc3)c(=O)n2CC(=O)N(C(C)C)C(C)C)n1C` [Example 51, 2-[1-(4-Chlorobenzyl)-8-ethyl-7-methyl-2,6-dioxo-1,2,6,7-tetrahydro-3H-purin-3-yl]-N,N-diisopropylacetamide], the EC50 was determined as 11.9 µM.

`CCc1nc2c(c(=O)n(Cc3ccc(Cl)cc3)c(=O)n2CC(OC)OC)n1C` [Example 52, 1-(4-chlorobenzyl)-3-(2,2-dimethoxyethyl)-8-ethyl-7-methyl-3,7-dihydro-1H-purine-2,6-dione]: the EC50 amounted to 8.8 µM.

As to `CCCn1c(=O)n(Cc2ccc(Cl)cc2)c(=O)c2c1nc(CC)n2C` [Example 54, 1-(4-chlorobenzyl)-8-ethyl-7-methyl-3-propyl-3,7-dihydro-1H-purine-2,6-dione], the EC50 worked out at 5.89 µM.

As for `CCCn1c(=O)n(Cc2ccc(OCc3ccccc3)cc2)c(=O)c2c1nc(CC)n2C` [Example 56, 1-[4-(Benzyloxy)benzyl]-8-ethyl-7-methyl-3-propyl-3,7-dihydro-1H-purine-2,6-dione], the EC50 turned out to be 15 µM.

Consider `CCCn1c(=O)n(Cc2ccc(Cl)c(Cl)c2)c(=O)c2c1nc(CC)n2C` [Example 57, 1-(3,4-Dichlorobenzyl)-8-ethyl-7-methyl-3-propyl-3,7-dihydro-1H-purine-2,6-dione], for which the EC50 turned out to be 2.6 µM.

Usually EC50 stands for the concentration that produces a half-maximal response.
